Counter-ions that a name gives are not always drawn.
Target: T1, Human coagulation factor (F)XI (Homo sapiens, UniProt P03951)
T1 construct: purchased Haematologic Technologies Inc. (FXI); Enzyme Research Laboratories (FXIIa) HCXI-150 (FXI); HFXIIa (FXIIa)
Assay: Inhibition of FXIIa mediated activation of FXI (activation of human Factor XI to XIa by human Factor α-XIIa)
Type: biochemical
Details: human FXI pre-incubated with compound 30 min at 22° C., activation by human FXIIa 60 min, z-GPR-AFC substrate, fluorescence 405/510 nm, 4 parameter logistic fit; read-out: Inhibition of FXIIa meditated activation of FXI
Procedure: Inhibition of FXIIa Mediated Activation of FXI
Activation of Human Factor XI to XIa by Human Factor α-XIIa
Assay was performed in 50 mM HEPES, 150 mM NaCl, 5 mM CaCl2, 0.1% PEG-8000, pH 7.4 buffer in black, flat-bottom, polystyrene microplates (Corning, Cat #3573). Serial dilutions (10-point, 3.333-fold) of the test compounds delivered as 10 mM DMSO stocks were prepared in the Labcyte Echo-qualified PP 384 well microplates (Labcyte, Cat #P-05525). Human coagulation factor (F)XI (Haematologic Technologies Inc., Cat #HCXI-150, concentration 46 nM, 19.5 uL) was pre-incubated with 0.5 uL of the test compounds for 30 min at 22° C. The activation was initiated by addition of 10 uL of human coagulation factor (F)XIIa (Enzyme Research Laboratories, Cat #HFXIIa, concentration 30 nM) and reaction proceeded for 60 min at 22° C., after which it was quenched by addition of a selective inhibitor of FXIIa (Compound 54 in WO2018093695) concentration 600 uM in DMSO, 1 uL). 10 min after the quench, 29 uL of z-GPR-AFC substrate (Sigma, Cat #C0980-10MG, concentration 200 uM) was added into each well and the detection reaction proceeded for 60 min at 22° C. Fluorescence at 405/510 nm was measured in end-point mode using an Envision plate-reader (Perkin Elmer). IDBS Activity Base XE (ABase) analysis using 4 parameter logistic fit was performed to determine Minimum, Maximum, EC50, and Slope Factor for each compound.

T1 sequence (P03951 19-625): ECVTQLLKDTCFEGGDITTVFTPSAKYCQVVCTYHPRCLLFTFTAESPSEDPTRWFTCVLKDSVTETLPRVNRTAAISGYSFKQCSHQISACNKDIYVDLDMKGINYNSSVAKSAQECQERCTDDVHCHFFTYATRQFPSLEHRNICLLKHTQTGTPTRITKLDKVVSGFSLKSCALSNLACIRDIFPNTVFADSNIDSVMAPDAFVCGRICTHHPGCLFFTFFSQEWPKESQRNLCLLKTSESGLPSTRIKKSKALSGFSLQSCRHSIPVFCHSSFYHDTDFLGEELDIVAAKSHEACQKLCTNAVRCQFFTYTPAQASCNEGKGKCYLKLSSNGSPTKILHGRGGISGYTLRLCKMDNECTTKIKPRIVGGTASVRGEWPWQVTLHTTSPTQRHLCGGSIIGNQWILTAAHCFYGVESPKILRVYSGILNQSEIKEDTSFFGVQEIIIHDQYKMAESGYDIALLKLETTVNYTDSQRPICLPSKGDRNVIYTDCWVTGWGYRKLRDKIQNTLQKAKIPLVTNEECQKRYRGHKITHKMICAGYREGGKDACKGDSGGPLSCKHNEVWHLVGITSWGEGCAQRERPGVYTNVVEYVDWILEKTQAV

| Compound | EC50 |
| --- | --- |
| Cc1cnc(C(=O)N2CCC(C#N)(c3ccccc3)CC2)cc1C(=O)N1CC2CC(C1)C2(F)c1ccccc1 (stereo not shown) [Example 12, 1-(4-(6-fluoro-6-phenyl-3-azabicyclo[3.1.1]heptane-3-carbonyl)-5-methylpicolinoyl)-4-phenylpiperidine-4-carbonitrile] | 0.137 µM |
| Cc1cnc(C(=O)N2CCC(C#N)(c3ccccc3)CC2)cc1C(=O)N1CC2CC(C1)C2c1ccccc1 (stereo not shown) [Example 13, 1-(5-methyl-4-(6-phenyl-3-azabicyclo[3.1.1]heptane-3-carbonyl)picolinoyl)-4-phenylpiperidine-4-carbonitrile] | 0.0667 µM |
| Cc1cnc(C(=O)N2CCC(C#N)(c3ccccc3)CC2)cc1C(=O)N1CCC2c3cc(F)ccc3OC2C1 (stereo not shown) [Example 14, 1-(4-(6-fluoro-1,2,3,4,4a,9a-hexahydrobenzofuro[2,3-c]pyridine-2-carbonyl)-5-methylpicolinoyl)-4-phenylpiperidine-4-carbonitrile] | 0.0451 µM |
| N#CC1(c2ccccc2)CCN(C(=O)c2cc(C(=O)N3CCC4c5ccccc5OC4C3)c(C(F)(F)F)cn2)CC1 (stereo not shown) [Example 16, 1-(4-(1,2,3,4,4a,9a-hexahydrobenzofuro[2,3-c]pyridine-2-carbonyl)-5-(trifluoromethyl)picolinoyl)-4-phenylpiperidine-4-carbonitrile] | 0.106 µM |
| N#CC1(c2ccccc2)CCN(C(=O)c2cc(C(=O)N3CC(c4ccc(F)cc4)C3)c(C(F)(F)F)cn2)CC1 [Example 17, 1-(4-(3-(4-fluorophenyl)azetidine-1-carbonyl)-5-(trifluoromethyl)picolinoyl)-4-phenylpiperidine-4-carbonitrile] | 0.411 µM |
| N#CC1(c2ccccc2)CCN(C(=O)c2cc(C(=O)N3CCC(N4CCC(F)(F)C4)CC3)c(C(F)(F)F)cn2)CC1 [Example 18, 1-[4-[4-(3,3-difluoropyrrolidin-1-ium-1-yl)piperidine-1-carbonyl]-5-(trifluoromethyl)pyridine-2-carbonyl]-4-phenyl-piperidine-4-carbonitrile; 2,2,2-trifluoroacetate] | 0.04 µM |
| Cc1cnc(C(=O)N2CCC(C#N)(c3ccccc3)CC2)cc1C(=O)N1CCC2c3c(F)cc(F)cc3OC2C1 (stereo not shown) [Example 19, 1-(4-(5,7-difluoro-1,2,3,4,4a,9a-hexahydrobenzofuro[2,3-c]pyridine-2-carbonyl)-5-methylpicolinoyl)-4-phenylpiperidine-4-carbonitrile] | 0.0493 µM |
| Cc1cnc(C(=O)N2CCC(C#N)(c3ccccc3)CC2)cc1C(=O)N1CCC2c3ccc(F)cc3OC2C1 (stereo not shown) [Example 20, 1-[4-(7-fluoro-3,4,4a,9a-tetrahydro-1H-benzofuro[2,3-c]pyridine-2-carbonyl)-5-methyl-pyridin-1-ium-2-carbonyl]-4-phenyl-piperidine-4-carbonitrile; 2,2,2-trifluoroacetate] | 0.0371 µM |
| COc1ccc2c(c1)OC1CN(C(=O)c3cc(C(=O)N4CCC(C#N)(c5ccccc5)CC4)ncc3C)CCC21 (stereo not shown) [Example 21, 1-[4-(7-methoxy-3,4,4a,9a-tetrahydro-1H-benzofuro[2,3-c]pyridine-2-carbonyl)-5-methyl-pyridin-1-ium-2-carbonyl]-4-phenyl-piperidine-4-carbonitrile; 2,2,2-trifluoroacetate] | 0.199 µM |
| Cc1cnc(C(=O)N2CCC(C#N)(c3ccccc3)CC2)cc1C(=O)N1CCC2c3ccc(C#N)cc3OC2C1 (stereo not shown) [Example 22, 2-[2-(4-cyano-4-phenyl-piperidine-1-carbonyl)-5-methyl-pyridin-1-ium-4-carbonyl]-3,4,4a,9a-tetrahydro-1H-benzofuro[2,3-c]pyridine-7-carbonitrile; 2,2,2-trifluoroacetate] | 0.0544 µM |
| Cc1cnc(C(=O)N2CCC(C#N)(c3ccccc3)CC2)cc1C(=O)N1CCC2c3cc(F)c(F)cc3OC2C1 (stereo not shown) [Example 24, 1-[4-(6,7-difluoro-3,4,4a,9a-tetrahydro-1H-benzofuro[2,3-c]pyridine-2-carbonyl)-5-methyl-pyridin-1-ium-2-carbonyl]-4-phenyl-piperidine-4-carbonitrile; 2,2,2-trifluoroacetate] | 0.0622 µM |
| CC(C)(C)C1CCN(C(=O)c2cc(C(=O)N3CCC(C#N)(c4ccccc4)CC3)ncc2C#N)CC1 [Example 25, 4-(4-tert-butylpiperidine-1-carbonyl)-6-(4-cyano-4-phenyl-piperidine-1-carbonyl)pyridin-1-ium-3-carbonitrile; 2,2,2-trifluoroacetate] | 0.0294 µM |

Continued, values first:

| EC50 | Compound |
| --- | --- |
| 0.0394 µM | Cc1cnc(C(=O)N2CCC(C#N)(c3ccccc3)CC2)cc1C(=O)N1CC[C@@H]2c3ccccc3O[C@@H]2C1 (racemic) [Example 2, 1-(4-((4aR,9aS)-1,2,3,4,4a,9a-hexahydrobenzofuro[2,3-c]pyridine-2-carbonyl)-5-methylpicolinoyl)-4-phenylpiperidine-4-carbonitrile and 1-(4-((4aS,9aR)-1,2,3,4,4a,9a-hexahydrobenzofuro[2,3-c]pyridine-2-carbonyl)-5-methylpicolinoyl)-4-phenylpiperidine-4-carbonitrile] |
| 0.042 µM | Cc1cnc(C(=O)N2CCC(C#N)(c3ccccc3)CC2)cc1C(=O)N1CCC(N2CCC(F)(F)C2)CC1 [Example 1, 1-(4-(4-(3,3-difluoropyrrolidin-1-yl)piperidine-1-carbonyl)-5-methylpicolinoyl)-4-phenylpiperidine-4-carbonitrile, 2,2,2-trifluoroacetate salt] |
| 0.0618 µM | Cc1cnc(C(=O)N2CCC(C#N)(c3ccccc3)CC2)cc1C(=O)N1CCC(C)(N2CCC(F)(F)C2)CC1 [Example 3, 1-(4-(4-(3,3-difluoropyrrolidin-1-yl)-4-methylpiperidine-1-carbonyl)-5-methylpicolinoyl)-4-phenylpiperidine-4-carbonitrile] |
| 0.197 µM | Cc1cnc(C(=O)N2CCC(C#N)(c3ccccc3)CC2)cc1C(=O)N1CC(c2cccc(F)c2)C1 [Example 4, 1-(4-(3-(3-fluorophenyl)azetidine-1-carbonyl)-5-methylpicolinoy1)-4-phenylpiperidine-4-carbonitrile] |
| 0.0304 µM | Cc1cnc(C(=O)N2CCC(C#N)(c3ccccc3)CC2)cc1C(=O)N1CCC(c2ccccc2)CC1 [Example 5, 1-(5-methyl-4-(4-phenylpiperidine-1-carbonyl)picolinoyl)-4-phenylpiperidine-4-carbonitrile] |
| 0.15 µM | Cc1cnc(C(=O)N2CCC(C#N)(c3ccccc3)CC2)cc1C(=O)N1CCC(CCc2ccccc2)CC1 [Example 6, 1-(5-methyl-4-(4-phenethylpiperidine-1-carbonyl)picolinoyl)-4-phenylpiperidine-4-carbonitrile] |
| 0.0435 µM | Cc1cnc(C(=O)N2CCC(C#N)(c3ccccc3)CC2)cc1C(=O)N(CCC1(O)CCCC1)C1CCC1 [Example 7, 2-(4-cyano-4-phenylpiperidine-1-carbonyl)-N-cyclobutyl-N-(2-(1-hydroxycyclopentyl)ethyl)-5-methylisonicotinamide] |
| 0.119 µM | Cc1cnc(C(=O)N2CCC(C#N)(c3ccccc3)CC2)cc1C(=O)N1CC(c2ccccc2)C1 [Example 8, 1-(5-methyl-4-(3-phenylazetidine-1-carbonyl)picolinoyl)-4-phenylpiperidine-4-carbonitrile] |
| 0.107 µM | Cc1cnc(C(=O)N2CCC(C#N)(c3ccccc3)CC2)cc1C(=O)N1CC(c2ccc(F)cc2)C1 [Example 9, 1-(4-(3-(4-fluorophenyl)azetidine-1-carbonyl)-5-methylpicolinoyl)-4-phenylpiperidine-4-carbonitrile] |
| 0.0741 µM | Cc1cnc(C(=O)N2CCC(C#N)(c3ccccc3)CC2)cc1C(=O)N1CCC(Cc2ccccc2)CC1 [Example 10, 1-(4-(4-benzylpiperidine-1-carbonyl)-5-methylpicolinoyl)-4-phenylpiperidine-4-carbonitrile] |
| 0.164 µM | Cc1cnc(C(=O)N2CCC(C#N)(c3ccccc3)CC2)cc1C(=O)N1CCN(C2CCCC2)C(=O)C1 [Example 11, 1-(4-(4-cyclopentyl-3-oxopiperazine-1-carbonyl)-5-methylpicolinoyl)-4-phenylpiperidine-4-carbonitrile] |
| 0.0425 µM | CC(C)(C)C1CCN(C(=O)c2cc(C(=O)N3CCC(C#N)(c4ccccc4)CC3)ncc2C2CC2)CC1 [Example 15, 1-(4-(4-(tert-butyl)piperidine-1-carbonyl)-5-cyclopropylpicolinoyl)-4-phenylpiperidine-4-carbonitrile, 2,2,2-trifluoroacetate salt] |
| 0.0751 µM | Cc1cnc(C(=O)N2CCC(C#N)(c3ccccc3)CC2)cc1C(=O)N1CCC2c3ccc(Cl)cc3OC2C1 (stereo not shown) [Example 23, 1-[4-(7-chloro-3,4,4a,9a-tetrahydro-1H-benzofuro[2,3-c]pyridine-2-carbonyl)-5-methyl-pyridin-1-ium-2-carbonyl]-4-phenyl-piperidine-4-carbonitrile; 2,2,2-trifluoroacetate] |

— patent US12492187B2, “Factor XI activation inhibitors” (Merck Sharp & Dohme LLC, priority 2020, dated 2025)
